Measured values published in patent publication US20230293629A1, “METHODS FOR ATTENUATING RELEASE OF INFLAMMATORY MEDIATORS AND PEPTIDES USEFUL THEREIN” (BIOMARCK PHARMACEUTICALS LTD., priority 2006, published 2023).
Where a SMILES comes first, the peptide text is derived from it. Where no end group is shown, it is not given here. The star is where a group is joined. Myristoyl = CCCCCCCCCCCCCC(=O)*

Assays:
HL-60 clone 15 cells = experiment: PMA-stimulated EPO release from HL-60 clone 15 cells; assay type: cell-based, human; settings: for % Inhibition EPO: 50 μM test peptide, two hour incubation with 100 nM PMA, HL-60 clone 15 cells
How it was run: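 HL-60 clone 15 cells were differentiated to an eosinophil-like state with 0.5 mM butyric acid for 5 days. At 2.5×10^6 cells/ml in phenol red-free RPMI, they were preincubated 10 min at 37 °C with peptide, then stimulated with PMA for up to 2 h. Released EPO was measured by TMB oxidation (A450) and given as percentage of total content in triton X-100 lysates.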

U937 cells = experiment: PMA-stimulated lysozyme secretion by U937 cells; assay type: cell-based, human; settings: for % Inhibition Lysozyme: 50 μM test peptide, two hour incubation with 100 nM PMA, U937 cells
How it was run: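 U937 cells at 2.5×10^6 cells/ml in phenol red-free RPMI-1640 were preincubated 10 min at 37 °C with 50 μM test peptide, then stimulated 2 h with 100 nM PMA. Secreted lysozyme was measured by decrease in A450 of Micrococcus lysodeikticus suspension (pH 7.0) against an egg white lysozyme standard, expressed as percentage of PMA control.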

[1] = system: isolated human neutrophils; experiment: MPO secretion from isolated human neutrophils stimulated with PMA + 8-Br-cGMP (FIG. 7, 8, 9); assay type: cell-based; settings: for MPO secretion: FIG. 7, 100 nM PMA and 10 μM 8-Br-cGMP
[2] = any of the time points or concentrations tested

Ac-GAQFSKTAAKGEAAAERPGEAAVA
% Inhibition EPO (HL-60 clone 15 cells): 33.7% | % Inhibition Lysozyme (U937 cells): 39.8%

Ac-GAQFSKTAAK [Ac-GAQFSKTAAK]
% Inhibition EPO (HL-60 clone 15 cells): 35.7% | % Inhibition Lysozyme (U937 cells): 41.2%

CCCCCCCCCCCCCC(=O)NCC(=O)N[C@H](C(=O)N[C@@H](C)C(=O)N1CCC[C@H]1C(=O)N[C@@H](C)C(=O)N[C@@H](C)C(=O)N[C@@H](CCC(=O)O)C(=O)NCC(=O)N[C@@H](C)C(=O)NCC(=O)N[C@@H](C)C(=O)N[C@@H](CCC(=O)O)C(=O)N[C@H](C(=O)N[C@@H](CCCCN)C(=O)N[C@@H](CCCNC(=N)N)C(=O)N[C@@H](C)C(=O)N[C@@H](CO)C(=O)N[C@@H](C)C(=O)N[C@@H](CCC(=O)O)C(=O)N[C@@H](C)C(=O)N[C@@H](CCCCN)C(=O)N[C@@H](CCC(N)=O)C(=O)N[C@@H](C)C(=O)N[C@@H](Cc1ccccc1)C(=O)O)C(C)C)[C@@H](C)O [RNS, reference compound] (Myristoyl-GTAPAAEGAGAEVKRASAEAKQAF-OH; C-terminus assumed)
% Inhibition EPO (HL-60 clone 15 cells): 0% | effect on PMA-enhanced EPO release (HL-60 clone 15 cells; [2]): did not affect | % Inhibition Lysozyme (U937 cells): 0% | effect on PMA-enhanced lysozyme secretion (U937 cells; [2]): did not affect | MPO secretion ([1]; 10 or 100 μM peptide): no effect

CCCCCCCCCCCCCC(=O)O[C@@H]1[C@@H](C)[C@@]2(O)[C@@H](C=C(CO)C[C@]3(O)C(=O)C(C)=C[C@@H]23)[C@@H]2C(C)(C)[C@]12OC(C)=O [PMA, phorbol 12-myristate 13-acetate]
MPO secretion from LPS-stimulated human neutrophils ([1]; FIG. 8, PMA alone, enhanced concentration-dependently by co-stimulation with 8-Br-cGMP): small increase

CCCCCCCCCCCCCC(=O)NCC(=O)N[C@@H](C)C(=O)N[C@@H](CCC(N)=O)C(=O)N[C@@H](Cc1ccccc1)C(=O)N[C@@H](CO)C(=O)N[C@@H](CCCCN)C(=O)N[C@H](C(=O)N[C@@H](C)C(=O)N[C@@H](C)C(=O)N[C@@H](CCCCN)C(=O)NCC(=O)N[C@@H](CCC(=O)O)C(=O)N[C@@H](C)C(=O)N[C@@H](C)C(=O)N[C@@H](C)C(=O)N[C@@H](CCC(=O)O)C(=O)N[C@@H](CCCNC(=N)N)C(=O)N1CCC[C@H]1C(=O)NCC(=O)N[C@@H](CCC(=O)O)C(=O)N[C@@H](C)C(=O)N[C@@H](C)C(=O)N[C@H](C(=O)N[C@@H](C)C(=O)O)C(C)C)[C@@H](C)O [MANS] (Myristoyl-GAQFSKTAAKGEAAAERPGEAAVA-OH; C-terminus assumed)
reduction in EPO activity relative to the PMA control reference (HL-60 clone 15 cells; 10 μM, 1 hour): about 15% | EPO activity relative to control as 100% (HL-60 clone 15 cells; 10 μM, 1 hour, PMA control reference about 110%): about 95% | reduction in EPO activity relative to the PMA control reference (HL-60 clone 15 cells; 10 μM, 2 hour): about 10% | EPO activity relative to control as 100% (HL-60 clone 15 cells; 10 μM, 2 hour, PMA control reference about 145%): about 130% | % Inhibition EPO (HL-60 clone 15 cells): 46.1% | reduction in EPO activity relative to the PMA control reference (HL-60 clone 15 cells; 50 μM, 1 hour): about 30% | EPO activity relative to control as 100% (HL-60 clone 15 cells; 50 μM, 1 hour, PMA control reference about 110%): about 78% | reduction in EPO activity relative to the PMA control reference (HL-60 clone 15 cells; 50 μM, 2 hour): about 50% | EPO activity relative to control as 100% (HL-60 clone 15 cells; 50 μM, 2 hour, PMA control reference about 145%): about 70% | reduction in EPO activity relative to the PMA control reference (HL-60 clone 15 cells; 100 μM, 1 hour): about 40% | EPO activity relative to control as 100% (HL-60 clone 15 cells; 100 μM, 1 hour, PMA control reference about 110%): about 65% | reduction in EPO activity relative to the PMA control reference (HL-60 clone 15 cells; 100 μM, 2 hour): about 50% | EPO activity relative to control as 100% (HL-60 clone 15 cells; 100 μM, 2 hour, PMA control reference about 145%): about 72% | reduction in lysozyme secretion relative to the PMA control reference (U937 cells; 10 μM, 1 hour): about 20% | lysozyme secretion relative to control as 100% (U937 cells; 10 μM, 1 hour, PMA control reference about 210%): about 170% | reduction in lysozyme secretion relative to the PMA control reference (U937 cells; 10 μM, 2 hour): about 20% | lysozyme secretion relative to control as 100% (U937 cells; 10 μM, 2 hour, PMA control reference about 240%): about 195% | % Inhibition Lysozyme (U937 cells): 40.8% | reduction in lysozyme secretion relative to the PMA control reference (U937 cells; 50 μM, 1 hour): about 20% | lysozyme secretion relative to control as 100% (U937 cells; 50 μM, 1 hour, PMA control reference about 210%): about 170% | reduction in lysozyme secretion relative to the PMA control reference (U937 cells; 50 μM, 2 hour): about 25% | lysozyme secretion relative to control as 100% (U937 cells; 50 μM, 2 hour, PMA control reference about 240%): about 185% | reduction in lysozyme secretion relative to the PMA control reference (U937 cells; 100 μM, 1 hour): about 45% | lysozyme secretion relative to control as 100% (U937 cells; 100 μM, 1 hour, PMA control reference about 210%): about 115% | reduction in lysozyme secretion relative to the PMA control reference (U937 cells; 100 μM, 2 hour): about 40% | lysozyme secretion relative to control as 100% (U937 cells; 100 μM, 2 hour, PMA control reference about 240%): about 140% | MPO secretion ([1]; 10 μM peptide): slight decrease | MPO secretion ([1]; 100 μM peptide): decreased secretion of MPO to control levels
